Twelve molecules from ChEMBL document CHEMBL5230097, “Structure-based design of covalent inhibitors targeting metallo-β-lactamases” (Eur J Med Chem, 2020) can be followed below.

Assay [1] can be described thus: Inhibition of Escherichia coli metallo-beta-lactamase NDM-1 assessed as substrate hydrolysis using cefazolin as substrate preincubated for 12 hrs followed by substrate by UV-Vis spectrophotometric analysis.
Assay [2] is described as follows: Inhibition of Metallo-beta-lactamase NDM-1 in Escherichia coli BL21 assessed as inhibition constant using nitrocefin as substrate preincubated for 20 mins followed by substrate and measured after 30 mins by spectrophotometric analysis.
Assay [3] can be described thus: Inhibition of Metallo-beta-lactamase NDM-1 in Escherichia coli BL21 (DE3) assessed as substrate hydrolysis using cefazolin as substrate preincubated for 20 hrs followed by substrate by spectrometric analysis.
Assay [4] in a line: Inhibition of wild type metallo-beta-lactamase IMP-1 (unknown origin) assessed as inhibition constant using nitrocefin as substrate preincubated with compound followed by substrate addition and measured for 60 sec by spectroscopic analysis. Also on record: species or system Bacteria.
Assay [5] in a line: Inhibition of Metallo-beta-lactamase NDM-1 (unknown origin) expressed in Escherichia coli BL21 (DE3) assessed as substrate hydrolysis using imipenem as substrate by spectrometric analysis. The arrangement: species or system Bacteria.
A short description of assay [6]: Inhibition of metallo-beta-lactamase IMP-1 (unknown origin) expressed in Escherichia coli BL21 (DE3) assessed as substrate hydrolysis using imipenem as substrate by spectrometric analysis. The arrangement: species or system Bacteria.
A short description of assay [7]: Inhibition of metallo-beta-lactamase ImiS (unknown origin) expressed in Escherichia coli BL21 (DE3) assessed as substrate hydrolysis using imipenem as substrate by spectrometric analysis. Also on record: species or system Bacteria.
Assay [8] is described as follows: Inhibition of Bacillus cereus II metallo-beta-lactamase using nitrocefin as substrate incubated for 5 mins by spectrophotometric analysis.

Consider `O=C(O)C(=O)CBr` [BROMOPYRUVATE], for which the IC50 in assay [1] was 2570 nM.
In the case of `O=c1c2ccccc2[se]n1-c1ccccc1` [EBSELEN], in assay [2], the Ki is 380 nM.
In the case of `O=c1c2ccccc2sn1-c1ccccc1`, in assay [3], the IC50 turned out to be 160 nM.
As to `O=C(CCS)Oc1c(F)c(F)c(F)c(F)c1F`, in assay [4], the Ki was determined as 3450 nM.
`CCCCN(CCCC)C(=S)SSC(=S)N(CCCC)CCCC`: the IC50 in assay [5] was found to be 260 nM; in assay [6], 530 nM; in assay [7], 1800 nM.
The corresponding values for `CCN(CC)C(=S)SSC(=S)N(CC)CC` [DISULFIRAM] are 130 nM, 2900 nM and 3600 nM.
Take `S=C(SSC(=S)N1CCCC1)N1CCCC1` [BIS(PYRROLIDINYLTHIOCARBONYL)DISULFIDE]: the figures for the IC50 in assay [5], in assay [6] and in assay [7] were 120 nM, 950 nM and 3700 nM, respectively.
As for `C[C@@H](NC(=O)Cc1ccccc1)C(=O)SCC(=O)O`, the IC50 in assay [8] was 479 µM.
Consider `S=C(SSC(=S)N(Cc1ccccc1)Cc1ccccc1)N(Cc1ccccc1)Cc1ccccc1` [BIS(DIBENZYLAMINETHIOCARBONYL)DISULFIDE], for which the figures for the IC50 in assay [5], in assay [6] and in assay [7] were 320 nM, 1700 nM and 2600 nM, respectively.
Molecule `C[C@@H](NC(=O)c1ccccc1)C(=O)SCC(=O)O` showed an IC50 in assay [8] of 645 µM.
For the molecule `O=C(CCSC(=O)CCS)Oc1c(F)c(F)c(F)c(F)c1F`, in assay [4], the Ki is 420 nM.
Turning to `S=C(SSC(=S)N1CCCCC1)N1CCCCC1` [BIS(PIPERIDINYLTHIOCARBONYL)DISULFIDE], the concentration for half-maximal inhibition (IC50) was found to be 140 nM in assay [5], 880 nM in assay [6] and 490 nM in assay [7].

By IC50 is commonly meant the concentration needed to halve the response being measured. For orientation: Ki means a dissociation constant, usually derived from enzyme kinetics or from competition with a known ligand.
